# Source: patent US20240116926A1, “HETEROAROMATIC COMPOUNDS” (AstraZeneca AB, priority 2022, published 2024)
# Assays:
# [1] = Solubility (thermodynamic, shake-flask); assay type: physicochemical; conditions: thermodynamic from solid; aqueous phosphate buffer (pH 7.4), 24 hours at 25° C.
# Method in brief: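 Shake-flask method starting from 10 mM DMSO stocks, which are dried before use. Residue equilibrated 24 h at 25° C. in aqueous phosphate buffer, pH 7.4. Dissolved fraction separated and quantified by UPLC/MS/MS, with QC samples in each run.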
# [2] = Protein binding measurements in human plasma (Hu PPB); assay type: in vitro ADME; conditions: equilibrium dialysis for 18 hours, fraction unbound
# Protocol: The automated equilibrium dialysis assay in human plasma uses the RED (Rapid Equilibrium Dialysis) Device and sample handling. The assay generally runs over two to three days including delivery of results. After dialysis for 18 hours, plasma and buffer samples are prepared for analysis by liquid chromatography and mass spectrometry. Samples are generally tested in singlicates and quantified by LC/MSMS by using a 7-point calibration curve in plasma. The compounds are pooled together in plasma pools up to 10 compounds. Three reference compounds are used in each run, Propranolol, Metoprolol and Warfarin. Warfarin is used as a control in each pool and Propranolol and Metoprolol are placed randomly in each run. An in-house Excel macro is used for preparation of files for the robot and the mass spectrometer and is also used for the calculations of fraction unbound (fu %) in plasma.
# [3] = system: MCF7-Luciferase cell line; assay: Control reporter (MCF7-Luciferase); assay type: cell-based; conditions: MCF7-Luciferase cells, luciferase activity after 24 hours
# [4] = target: TEAD4(217-434) (Homo sapiens (Human), UniProt Q15561); assay: TEAD4 FRET; assay type: binding; conditions: depalmitoylated, biotinylated TEAD4(217-434), FAM labelled Probe A, 120 min at 25° C.
# [5] = system: MCF7-Tead cell line; assay: TEAD reporter assay; assay type: cell-based; conditions: MCF7-Tead cells, luciferase activity after 24 hours
# TEAD4(217-434), sequence (Q15561 217-434): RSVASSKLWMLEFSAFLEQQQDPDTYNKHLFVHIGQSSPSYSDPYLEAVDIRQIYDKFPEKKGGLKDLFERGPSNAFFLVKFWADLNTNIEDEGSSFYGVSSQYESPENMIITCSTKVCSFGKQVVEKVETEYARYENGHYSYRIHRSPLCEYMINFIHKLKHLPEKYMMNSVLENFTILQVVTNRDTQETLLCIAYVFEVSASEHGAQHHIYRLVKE
smiles,measurement,setting,value
"C=CC(=O)N1C[C@@H](Nc2nnc(-c3ccc(C(F)(F)F)cc3)c3ccccc23)C[C@@H]1CO [Example 47, 1-((2R,4S)-2-(hydroxymethyl)-4-((4-(4-(trifluoromethyl)phenyl)phthalazin-1-yl)amino)pyrrolidin-1-yl)prop-2-en-1-one]",solubility at 24 h,[1],13 µM
same,Hu PPB (% free),[2],8.3 % free
same,IC50,[3],20.7 µM
same,IC50,[4],42 nM
same,IC50,[5],17 nM
"C=CC(=O)NCC1(Nc2nnc(-c3ccc(C(F)(F)F)cc3)c3ccccc23)CCC1 [Example 42, N-((1-((4-(4-(trifluoromethyl)phenyl)phthalazin-1-yl)amino)cyclobutyl)methyl)acrylamide]",solubility at 24 h,[1],19 µM
same,Hu PPB (% free),[2],0.8 % free
same,IC50,[3],19.6 µM
same,IC50,[4],70 nM
same,IC50,[5],672 nM
"C=CC(=O)N1C[C@@H](CO)[C@H](Nc2ncc(-c3ccc(C(F)(F)F)cc3)c3ncccc23)C1 [Example 24, 1-((3R,4S)-3-(hydroxymethyl)-4-((8-(4-(trifluoromethyl)phenyl)-1,6-naphthyridin-5-yl)amino)pyrrolidin-1-yl)prop-2-en-1-one]",solubility at 24 h,[1],32 µM
same,Hu PPB (% free),[2],1.9 % free
same,IC50,[3],> 31.7 µM
same,IC50,[4],23 nM
same,IC50,[5],16 nM
"C=CC(=O)NC1(CNc2nnc(-c3ccc(C(F)(F)F)cc3)c3ccccc23)CCC1 [Example 41, N-(1-(((4-(4-(trifluoromethyl)phenyl)phthalazin-1-yl)amino)methyl)cyclobutyl)acrylamide]",solubility at 24 h,[1],72 µM
same,Hu PPB (% free),[2],0.9 % free
same,IC50,[3],21.5 µM
same,IC50,[4],72 nM
same,IC50,[5],152 nM
